Results from US11040035B2, “3-oxo-2,6-diphenyl-2,3-dihydropyridazine-4-carboxamides” (BAYER PHARMA AKTIENGESELLSCHAFT, priority 2016, dated 2021).
Read-outs that look alike come from different tables or passages of the source.

Assays:
AHR [1] = biological target: T1, AHR (Homo sapiens, UniProt P35869); experiment: In vitro assay 2: agonism in human cell line (transactivation assay)
T1 sequence (P35869 11-848): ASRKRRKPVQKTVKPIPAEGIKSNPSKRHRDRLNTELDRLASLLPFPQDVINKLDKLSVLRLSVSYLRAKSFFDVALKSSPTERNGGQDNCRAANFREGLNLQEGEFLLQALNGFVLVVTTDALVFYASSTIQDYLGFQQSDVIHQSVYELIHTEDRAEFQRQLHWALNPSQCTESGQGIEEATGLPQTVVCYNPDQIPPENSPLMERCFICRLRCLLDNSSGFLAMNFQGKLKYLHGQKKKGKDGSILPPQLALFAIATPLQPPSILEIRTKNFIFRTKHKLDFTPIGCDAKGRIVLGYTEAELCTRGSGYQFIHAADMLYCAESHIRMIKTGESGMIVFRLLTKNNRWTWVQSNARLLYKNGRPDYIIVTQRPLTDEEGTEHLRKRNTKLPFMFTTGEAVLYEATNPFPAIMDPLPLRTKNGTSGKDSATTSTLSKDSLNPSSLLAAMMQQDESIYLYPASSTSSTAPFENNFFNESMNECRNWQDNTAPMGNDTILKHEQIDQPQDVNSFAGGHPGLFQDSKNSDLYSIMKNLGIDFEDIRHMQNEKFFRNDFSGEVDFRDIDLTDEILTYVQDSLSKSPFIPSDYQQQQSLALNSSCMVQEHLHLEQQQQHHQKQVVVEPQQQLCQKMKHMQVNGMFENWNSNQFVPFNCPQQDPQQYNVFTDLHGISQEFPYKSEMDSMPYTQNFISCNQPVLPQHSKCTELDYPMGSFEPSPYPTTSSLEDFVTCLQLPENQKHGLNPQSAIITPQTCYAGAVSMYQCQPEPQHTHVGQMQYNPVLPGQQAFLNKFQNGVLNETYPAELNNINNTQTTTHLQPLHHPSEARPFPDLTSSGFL

AHR [2] = biological target: T1, AHR; experiment: In vitro assay 1: antagonism in human cell line (transactivation assay, kynurenic acid prestimulated); conditions: Assay 1: AHR-luc Hum Antagonism IC50 [M], 150 μM kynurenic acid, 20 hours, firefly luciferase
[3] = system: AHR-regulated gene CYP1A1; experiment: In vitro assay 3: AHR-regulated CYP1A1 expression in human cell line (U937, qPCR)
[4] = Assay 2: AHR-luc Hum Agonism IC50 [M], no kynurenic acid, 20 hours, firefly luciferase
[5] = read-out: Assay 3: Hum CYP1A1 Antagonism IC50, U937 cells, 200 μM KA, 6 hours, qPCR
[6] = read-out: Assay 2: AHR-luc Hum Agonism IC50, no kynurenic acid, 20 hours, firefly luciferase
[7] = Homo sapiens, U-937, 6 h, read-out: Assay 3: Hum CYP1A1 Antagonism IC50 [M], U937 cells, 200 μM KA, 6 hours, qPCR

| Structure (SMILES) | IC50 (AHR [1]; [4]) [M] | IC50 (AHR [2]) [M] | IC50 [3, 5] [M] | IC50 (AHR [1]; [6]) [M] | IC50 [3, 7] [M] |
| --- | --- | --- | --- | --- | --- |
| CC(C)C(O)CNC(=O)c1cc(-c2ccc(Cl)cc2)nn(-c2cc(F)cc(F)c2)c1=O (single isomer, unassigned) [Example 50, 6-(4-Chlorophenyl)-2-(3,5-difluorophenyl)-N-(2-hydroxy-3-methylbutyl)-3-oxo-2,3-dihydropyridazine-4-carboxamide] |  | 5.8e-08 | 1.51e-07 | > 2e-05 |  |
| Cc1ccc(-c2cc(C(=O)NCC(O)C(C)C)c(=O)n(-c3cc(F)cc(F)c3)n2)cc1 (single isomer, unassigned) [Example 58, 2-(3,5-Difluorophenyl)-N-(2-hydroxy-3-methylbutyl)-6-(4-methylphenyl)-3-oxo-2,3-dihydropyridazine-4-carboxamide] |  | 4.28e-08 | 1.34e-07 | > 2e-05 |  |
| COc1ccc(-c2cc(C(=O)NC(CO)C(F)(F)F)c(=O)n(-c3cccc(F)c3)n2)cc1 (single isomer, unassigned) [Example 102, 2-(3-Fluorophenyl)-6-(4-methoxyphenyl)-3-oxo-N-(1,1,1-trifluoro-3-hydroxypropan-2-yl)-2,3-dihydropyridazine-4-carboxamide] |  | 4.22e-08 | 4.37e-08 | > 2e-05 |  |
| COc1ccc(-c2cc(C(=O)NCC(O)C(F)(F)F)c(=O)n(-c3cccc(F)c3)n2)cc1 (single isomer, unassigned) [Example 127, 2-(3-Fluorophenyl)-6-(4-methoxyphenyl)-3-oxo-N-(3,3,3-trifluoro-2-hydroxypropyl)-2,3-dihydropyridazine-4-carboxamide] | > 2e-05 | 4.05e-08 | 6.08e-08 |  |  |
| COc1ccc(-c2cc(C(=O)NCC(O)C(F)(F)F)c(=O)n(-c3cccc(F)c3)n2)cc1 (single isomer, unassigned) [Example 128, 2-(3-Fluorophenyl)-6-(4-methoxyphenyl)-3-oxo-N-(3,3,3-trifluoro-2-hydroxypropyl)-2,3-dihydropyridazine-4-carboxamide] |  | 1.7e-07 | 6e-07 | > 2e-05 |  |
| O=C(N[C@H]1COC[C@@H]1O)c1cc(-c2ccc(Cl)cc2)nn(-c2cccc(F)c2)c1=O (single isomer, unassigned) [Example 135, 6-(4-Chlorophenyl)-2-(3-fluorophenyl)-N-(trans-4-hydroxytetrahydrofuran-3-yl)-3-oxo-2,3-dihydropyridazine-4-carboxamide] | > 2e-05 | 1.41e-07 |  |  | 1.32e-07 |
| O=C(NC(CO)C1CCOC1)c1cc(-c2ccc(OC(F)F)cc2)nn(-c2cccc(F)c2)c1=O (single isomer, unassigned) [Example 145, 6-[4-(Difluoromethoxy)phenyl]-2-(3-fluorophenyl)-N-{(2-hydroxy-1-tetrahydrofuran-3-yl)ethyl}-3-oxo-2,3-dihydropyridazine-4-carboxamide] | > 2e-05 | 9.33e-08 |  |  | 3.89e-08 |
| O=C(NC(CO)C1CCOC1)c1cc(-c2ccc(OC(F)(F)F)cc2)nn(-c2cccc(F)c2)c1=O (single isomer, unassigned) [Example 176, 2-(3-Fluorophenyl)-N-[2-hydroxy-1-(tetrahydrofuran-3-yl)ethyl]-3-oxo-6-[4-(trifluoromethoxy)phenyl]-2,3-dihydropyridazine-4-carboxamide] |  | 1.71e-07 | 1.02e-07 | > 2e-05 |  |
| O=C(NC(CO)C1CCOC1)c1cc(-c2ccc(OC(F)(F)F)cc2)nn(-c2cccc(F)c2)c1=O (single isomer, unassigned) [Example 177, 2-(3-Fluorophenyl)-N-[2-hydroxy-1-(tetrahydrofuran-3-yl)ethyl]-3-oxo-6-[4-(trifluoromethoxy)phenyl]-2,3-dihydropyridazine-4-carboxamide] |  | 3.19e-07 | 6e-07 | > 2e-05 |  |

Stronger by IC50 (AHR [2]), values ahead:

| IC50 (AHR [1]; [4]) [M] | IC50 (AHR [2]) [M] | IC50 [3, 5] [M] | IC50 (AHR [1]; [6]) [M] | IC50 [3, 7] [M] | Structure (SMILES) |
| --- | --- | --- | --- | --- | --- |
| > 2e-05 | 3.65e-08 |  |  | 3.59e-08 | O=C(N[C@H]1CCC[C@@H]1O)c1cc(-c2ccc(Cl)cc2)nn(-c2cccc(F)c2)c1=O (single isomer, unassigned) [Example 124, 6-(4-Chlorophenyl)-2-(3-fluorophenyl)-N-(trans-2-hydroxycyclopentyl)-3-oxo-2,3-dihydropyridazine-4-carboxamide] |
| > 2e-05 | 3.49e-08 | 3.83e-08 |  |  | Cc1ccc(-c2cc(C(=O)NCC(O)C(C)C)c(=O)n(-c3cc(F)cc(F)c3)n2)cc1 (single isomer, unassigned) [Example 57, 2-(3,5-Difluorophenyl)-N-(2-hydroxy-3-methylbutyl)-6-(4-methylphenyl)-3-oxo-2,3-dihydropyridazine-4-carboxamide] |
| > 2e-05 | 3.42e-08 | 4.92e-08 |  |  | CC(C)C(O)CNC(=O)c1cc(-c2ccc(Cl)cc2)nn(-c2cc(F)cc(F)c2)c1=O (single isomer, unassigned) [Example 49, 6-(4-Chlorophenyl)-2-(3,5-difluorophenyl)-N-(2-hydroxy-3-methylbutyl)-3-oxo-2,3-dihydropyridazine-4-carboxamide] |
| > 2e-05 | 3.25e-08 |  |  | 3.13e-08 | O=C(N[C@H]1CCCC[C@@H]1O)c1cc(-c2ccc(Cl)cc2)nn(-c2cccc(F)c2)c1=O (single isomer, unassigned) [Example 118, 6-(4-chlorophenyl)-2-(3-fluorophenyl)-N-(trans-2-hydroxycyclohexyl)-3-oxo-2,3-dihydropyridazine-4-carboxamide] |
|  | 2.92e-08 | 4.03e-08 | > 2e-05 |  | O=C(NCC(O)C(F)(F)F)c1cc(-c2ccc(C(F)F)cc2)nn(-c2cccc(F)c2)c1=O (single isomer, unassigned) [Example 96, 6-[4-(Difluoromethyl)phenyl]-2-(3-fluorophenyl)-3-oxo-N-(3,3,3-trifluoro-2-hydroxypropyl)-2,3-dihydropyridazine-4-carboxamide] |
| > 2e-05 | 2.91e-08 | 3.76e-08 |  |  | O=C(NC(CO)C1CCOC1)c1cc(-c2ccc(OC(F)(F)F)cc2)nn(-c2cccc(F)c2)c1=O (single isomer, unassigned) [Example 175, 2-(3-Fluorophenyl)-N-[2-hydroxy-1-(tetrahydrofuran-3-yl)ethyl]-3-oxo-6-[4-(trifluoromethoxy)phenyl]-2,3-dihydropyridazine-4-carboxamide] |
| > 2e-05 | 1.76e-08 |  |  | 1.83e-08 | COc1ccc(-c2cc(C(=O)N[C@@H]3CCCC[C@@H]3O)c(=O)n(-c3cccc(F)c3)n2)cc1 (single isomer, unassigned) [Example 107, 2-(3-Fluorophenyl)-N-(cis-2-hydroxycyclohexyl)-6-(4-methoxyphenyl)-3-oxo-2,3-dihydropyridazine-4-carboxamide] |
| > 2e-05 | 1.57e-08 |  |  | 1.64e-08 | O=C(N[C@@H]1CCCC[C@@H]1O)c1cc(-c2ccc(Cl)cc2)nn(-c2cccc(F)c2)c1=O (single isomer, unassigned) [Example 104, 6-(4-Chlorophenyl)-2-(3-fluorophenyl)-N-(cis-2-hydroxycyclohexyl)-3-oxo-2,3-dihydropyridazine-4-carboxamide] |
| > 2e-05 | 1.24e-08 | 1.88e-08 |  |  | COc1ccc(-c2cc(C(=O)NC(CO)C(F)(F)F)c(=O)n(-c3cccc(F)c3)n2)cc1 (single isomer, unassigned) [Example 101, 2-(3-fluorophenyl)-6-(4-methoxyphenyl)-3-oxo-N-(1,1,1-trifluoro-3-hydroxypropan-2-yl)-2,3-dihydropyridazine-4-carboxamide] |
| > 2e-05 | 1.19e-08 |  |  | 1.42e-08 | O=C(NC(CO)C(F)(F)F)c1cc(-c2ccc(OC(F)(F)F)cc2)nn(-c2cccc(F)c2)c1=O (single isomer, unassigned) [Example 170, 2-(3-Fluorophenyl)-3-oxo-N-(1,1,1-trifluoro-3-hydroxypropan-2-yl)-6-[4-(trifluoromethoxy)phenyl]-2,3-dihydropyridazine-4-carboxamide] |
| > 2e-05 | 6.77e-09 | 7.63e-09 |  |  | O=C(NCC(O)C(F)(F)F)c1cc(-c2ccc(C(F)F)cc2)nn(-c2cccc(F)c2)c1=O (single isomer, unassigned) [Example 95, 6-[4-(Difluoromethyl)phenyl]-2-(3-fluorophenyl)-3-oxo-N-(3,3,3-trifluoro-2-hydroxypropyl)-2,3-dihydropyridazine-4-carboxamide] |
